In the supplement of paper PMC9151546 one finds benchmark concentration data, which are given here for 27 compounds.

Assay [1] relates to CHO-K1. Put plainly: benchmark concentration for 60% increase in hypodiploid frequency (BMC60); higher = less potent aneugen. As for the experimental part:
(§1)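 Benchmark concentration modelling (PROAST, Hill/exponential model families) of the 19-concentration flow-cytometric micronucleus assay in CHO-K1 cells, with and without rat liver S9. Only non-cytotoxic and adequate (relative survival >=40%) concentrations were used. BMR was a 30% increase in %MN (BMC30) or a 60% increase in %hypodiploid (BMC60) over control.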

In assay [2] the test system is CHO-K1. Put plainly: benchmark concentration for 30% increase in micronucleus frequency (BMC30); higher = less potent clastogen. As for the experimental part:
as §1

Where [3] appears, read: S9 metabolic activation: without S9.
[4] abbreviates: S9 metabolic activation: with S9.

Structures can show the parent of a compound that is named as a salt. Where only a bound is given, the exact number is not on record here.

As to `Cc1ccc(O)cc1C` [3,4-Dimethylphenol], the values for the benchmark concentration in assay [1] (setting [3]) and in assay [2] (setting [3]) were 74 µM and 120 µM, respectively.
For the compound `OCCCBr` [3-Bromo-1-propanol], the results for the benchmark concentration in assay [1] (setting [3]) and in assay [2] (setting [3]) were 73 µM and 110 µM, respectively.
For `Cc1cc(Cc2ccc(N)c(C)c2)ccc1N` [4,4'-Methylenebis(2-methylaniline)] the same measures were 33 µM and 37 µM.
In the case of `CN(C)c1ccc(Cc2ccc(N(C)C)cc2)cc1` [4,4'-Methylenebis(N,N-dimethylaniline)], the benchmark concentration in assay [1] (setting [4]) worked out at 75 µM; in assay [1] (setting [3]), 38 µM; in assay [2] (setting [4]) it was 56 µM.
Consider `Nc1ccc(Oc2ccc(N)cc2)cc1` [4,4'-Oxydianiline], for which the results for the benchmark concentration in assay [1] (setting [3]) and in assay [2] (setting [3]) were 31 µM and 60 µM, respectively.
Regarding `CCC(C)(C)c1ccc(O)cc1` [4-(2-Methylbutan-2-yl)phenol], the benchmark concentration in assay [1] (setting [3]) came out at 140 µM; in assay [2] (setting [4]), 81 µM.
With `Cc1cc(O)ccc1Cl` [4-Chloro-3-methylphenol], the benchmark concentration in assay [1] (setting [3]) stood at 46 µM; in assay [2] (setting [4]) it was 18 µM; in assay [2] (setting [3]) it was 41 µM.
Consider `Nc1ccc(Cl)cc1` [4-Chloroaniline], for which the benchmark concentration came out at 31 µM in assay [1] (setting [3]) and 63 µM in assay [2] (setting [3]).
As to `CC(C)(c1ccccc1)c1ccc(O)cc1` [4-Cumylphenol], the benchmark concentration worked out at 44 µM in assay [1] (setting [3]) and 26 µM in assay [2] (setting [3]).
As for `Nc1ccc([N+](=O)[O-])cc1` [4-Nitroaniline], the benchmark concentration was 100 µM in assay [1] (setting [3]) and 11 µM in assay [2] (setting [3]).
On the same counts, the results for `O=C1NC(=O)C(c2ccccc2)(c2ccccc2)N1` [5,5-Diphenylhydantoin] are 17 µM and 13 µM.
As to `O=c1[nH]cc(F)c(=O)[nH]1` [5-Fluorouracil], the values for the benchmark concentration in assay [1] (setting [3]) and in assay [2] (setting [3]) were 99 µM and 110 µM, respectively.
For `CCCCCCCC1CCC(=O)O1` (configuration not stated) [5-Heptyldihydro-2(3H)-furanone] the same measures were 79 µM and 75 µM.
Regarding `Cc1cc(=O)[nH]c(=S)[nH]1` [6-Methyl-2-thiouracil], the benchmark concentration in assay [1] (setting [4]) is 83 µM; in assay [1] (setting [3]) it was 57 µM; in assay [2] (setting [3]), less than 4.5 µM.
Turning to `Cc1ccc2ncccc2c1` [6-Methylquinoline], the benchmark concentration in assay [1] (setting [4]) is 51 µM; in assay [1] (setting [3]) it was 120 µM; in assay [2] (setting [4]), 22 µM.
`Nc1nc(=S)c2[nH]cnc2[nH]1` [6-Thioguanine]: the benchmark concentration in assay [1] (setting [4]) is 74 µM; in assay [2] (setting [4]), 33 µM; in assay [2] (setting [3]), less than 4.5 µM.
Take `C#C[C@]1(O)CC[C@H]2[C@@H]3CCc4cc(O)ccc4[C@H]3CC[C@@]21C` [17alpha-Ethinylestradiol]: the benchmark concentration in assay [1] (setting [3]) is less than 4.5 µM; in assay [2] (setting [4]), 58 µM.
Consider `C[C@]12CC[C@@H]3c4ccc(O)cc4CC[C@H]3[C@@H]1CC[C@@H]2O` [17beta-Estradiol], for which the values for the benchmark concentration in assay [1] (setting [3]) and in assay [2] (setting [3]) were 9.9 µM and 8.1 µM, respectively.
Take `c1cc2c3c(cccc3c1)CC2` [Acenaphthene]: the benchmark concentration was 89 µM in assay [1] (setting [4]), 59 µM in assay [2] (setting [4]) and 78 µM in assay [2] (setting [3]).
Regarding `CCCCc1oc2ccccc2c1C(=O)c1cc(I)c(OCCN(CC)CC)c(I)c1` [Amiodarone hydrochloride], the benchmark concentration in assay [1] (setting [4]) stood at 11 µM; in assay [2] (setting [4]) it was 16 µM.
With `O=C1c2c(O)cccc2Cc2cccc(O)c21` [Anthralin], the benchmark concentration in assay [1] (setting [3]) came out at 16 µM; in assay [2] (setting [3]), 110 µM.
On to `Cn1cnc([N+](=O)[O-])c1Sc1ncnc2[nH]cnc12` [Azathioprine], for which the benchmark concentration in assay [1] (setting [4]) was 170 µM; in assay [1] (setting [3]) it was 18 µM; in assay [2] (setting [3]), 83 µM.
For the compound `c1ccc(/N=N/c2ccccc2)cc1` [Azobenzene], the benchmark concentration came to 37 µM in assay [1] (setting [4]), 87 µM in assay [1] (setting [3]) and 32 µM in assay [2] (setting [4]).
In the case of `Nc1ccc(-c2ccc(N)cc2)cc1` [Benzidine], the benchmark concentration in assay [1] (setting [3]) and in assay [2] (setting [3]) was 18 µM throughout.
Take `c1ccc2c(c1)-c1cccc3c1c-2cc1ccccc13` [Benzo(b)fluoranthene]: the benchmark concentration in assay [1] (setting [3]) is 93 µM; in assay [2] (setting [3]), 130 µM.
For `O=C(c1ccccc1)c1ccccc1` [Benzophenone] the same measures were 28 µM and 59 µM.
As to `OCc1ccccc1` [Benzyl alcohol], the benchmark concentration in assay [1] (setting [3]) turned out to be 93 µM; in assay [2] (setting [3]), 43 µM.
